Reference: patent US20230250123A1, “GUT MICROBIOTA BIOACTIVATED PDE4 INHIBITOR PRECURSORS” (Giiant Pharma Inc., priority 2020, published 2023)

How the values were obtained:
[1] = Bidirectional Caco-2 permeability assay; format: in vitro ADME; settings: human; Caco-2, 10 µM, apical pH 6.0 / basolateral pH 7.4, average of 2 determinations
Procedure: In vitro glycoside prodrug permeability assessment. The permeability of the glycoside prodrugs were measured using the bidirectional Caco-2 assay. Caco-2 cells were seeded onto permeable polycarbonate supports in 12-well Costar Transwell plates and allowed to grow and differentiate for 21-25 days. On day 24, culture medium (DMEM supplemented with 10% FBS, 1% non-essential amino acids and penicillin/streptomycin) was removed from both sides of the transwell inserts and cells were rinsed with warm HBSS. […] The buffer in the donor chamber (apical side for A-to-B assay, basolateral side for B-to-A assay) was removed and replaced with the working solution (10 µM test article in transport buffer). The plates were then placed at 37° C. under light agitation. At designated time points (30, 60 and 90 min); an aliquot of transport buffer from the receiver chamber was removed and replenished with fresh transport buffer. Samples were quenched with ice-cold CH3CN containing internal standard and then centrifuged to precipitate the protein. Resulting supernatants were further diluted with 50/50 ACN/H2O (H2O only for Atenolol) and submitted for LC/MS/MS analysis. […] Atenolol and propranolol were tested as low and […] permeability references. […] The apparent permeability (Papp, measured in cm/s) of a compound is determined according to the following formula: […]
Where dQ/dt is the net rate of appearance in the receiver compartment, A is the area of the Transwell measured in cm^2 (1.12 cm^2), C0 is the initial concentration of compound added to the donor chamber and 60 is the conversion factor for the minute to second.

[2] = In vitro rate of glycoside prodrug hydrolysis in feces supernatant, rat; format: in vitro ADME; settings: 100 µM, 37° C., pH 6.5, 24 hr
Procedure: In vitro rate of glycoside prodrugs hydrolysis. The metabolic stability of prodrug candidates to release the parent PDE4 inhibitor could be assessed in vitro according, but not restricted, to the following protocol: feces were collected overnight on a mixture of dry and wet ice in a metabolic cage. Ten volumes (v/w; 30 mL) of 100 mM phosphate buffer (pH 6.5) were added to 3 g of freshly collected rodent feces. The mixture was homogenized with a Stomacher Circulator 400 (2 × 1 min-cycles at 225 rpm). The mixture was transferred to a 50 mL tubes, centrifuged at 10 000xg for 10 min (4° C.) and the supernatant was passed through a 0.45 µm-filter. In a 96 deep-well plate, 198 µL of feces supernatant were aliquoted in 2 wells per compound. Each compound, including positive control, was tested in duplicate. Then 2 µL of 10 mM stock solution of each test compound were spiked in individual wells (duplicate) at a final concentration of 100 µM and samples were sealed and mixed 30 sec at 1000 rpm using a vortexer. Samples were incubated at 37° C. for the desired time in the Thermomixer with constant agitation (300 rpm). At desired time-point, 25 µL of reaction mixture was added to 225 µL of ice-cold quenching solution (acetonitrile + 0.1% (v/v) formic acid) to stop the bacterial enzymatic activity. The quenched incubates were mixed and centrifuged 10 min at 21 000xg at 4° C. A real t0 (no metabolism, 100% total recovery of unchanged prodrug) was generated by adding 22.5 µL of feces supernatant to 225 µL of ice-cold quenching solution (acetonitrile + 0.1% (v/v) formic acid). Then 2.5 µL of 1 mM solution of each test compounds was added, sealed, mixed thoroughly and centrifuged 10 min at 21 000xg at 4° C. All samples, including analytical standards, were analyzed by LC-MS/MS to measure the concentration of the parent PDE4 inhibitor released and the concentration of the corresponding prodrug remaining. A set criteria of 100% recovery is targeted where the summation of the % of prodrug remaining and the % of parent PDE4 inhibitor released should be 100% with an experimental error tolerance of ± 20%. When prodrugs represented by Formula (I) were incubated 24 hours under the conditions described above using mouse, rat and dog feces, the glycoside prodrugs were hydrolyzed to release the corresponding parent PDE4 inhibitor III (Table 3). As a negative control, when compound 4, 10 and 21 were incubated 24 hours under the conditions described above but in the absence of enzyme activities, using mouse feces extract supernatant inactivated by boiling the supernatant 10 minutes, 100% of the prodrugs were recovered unchanged.

SMILES | Papp A→B at 10 µM [1] | Prodrug Remaining @ 24 hr (%) [2]
CNC(=O)[C@H]1O[C@@H](Oc2ccc(C[C@@H](c3ccc(OC(F)F)c(OC4CC4)c3)c3cnc(C(O)(C(F)(F)F)C(F)(F)F)s3)cn2)[C@H](O)[C@@H](O)[C@@H]1O [Compound 15, (2S,3S,4S,5R,6S)-methyl 6-((5-((S)-2-(3-cyclopropoxy-4-(difluoromethoxy)phenyl)-2-(2-(1,1,1,3,3,3-hexafluoro-2-hydroxypropan-2-yl)thiazol-5-yl)ethyl)pyridin-2-yl)oxy)-3,4,5-trihydroxytetrahydro-2H-pyran-2-carboxamide] | 1.5 ×10⁻⁶ cm/s | 74%
CN(C)[C@H]1[C@H](Oc2ccc(C[C@@H](c3ccc(OC(F)F)c(OC4CC4)c3)c3cnc(C(O)(C(F)(F)F)C(F)(F)F)s3)cn2)O[C@H](CO)[C@@H](O)[C@@H]1O [Compound 27, (2R,3S,4R,5R,6S)-6-((5-((S)-2-(3-cyclopropoxy-4-(difluoromethoxy)phenyl)-2-(2-(1,1,1,3,3,3-hexafluoro-2-hydroxypropan-2-yl)thiazol-5-yl)ethyl)pyridin-2-yl)oxy)-5-(dimethylamino)-2-(hydroxymethyl)tetrahydro-2H-pyran-3,4-diol] | 2.4 ×10⁻⁶ cm/s | 93%
CC(=O)OC[C@H]1O[C@@H](O[C@H]2[C@H](OC(C)=O)[C@@H](OC(C)=O)[C@H](Oc3ccc(C[C@H](c4ccc(C(C)(C)O)nc4)c4ccc(OC(F)F)c(OC5CC5)c4)cn3)O[C@@H]2COC(C)=O)[C@H](OC(C)=O)[C@@H](OC(C)=O)[C@@H]1OC(C)=O [Compound 30, (2R,3R,4S,5R,6S)-2-(acetoxymethyl)-6-(((2R,3R,4S,5R,6S)-4,5-diacetoxy-2-(acetoxymethyl)-6-((5-((S)-2-(3-cyclopropoxy-4-(difluoromethoxy)phenyl)-2-(6-(2-hydroxypropan-2-yl)pyridin-3-yl)ethyl)pyridin-2-yl)oxy)tetrahydro-2H-pyran-3-yl)oxy)tetrahydro-2H-pyran-3,4,5-triyl triacetate] | 0.5 ×10⁻⁶ cm/s | 10%
CC(C)(O)c1ccc([C@@H](Cc2ccc(O[C@@H]3O[C@H](CO)[C@@H](O[C@@H]4O[C@H](CO)[C@@H](O)[C@H](O)[C@H]4O)[C@H](O)[C@H]3O)nc2)c2ccc(OC(F)F)c(OC3CC3)c2)cn1 [Compound 31, (2S,3R,4S,5S,6R)-2-(((2R,3S,4R,5R,6S)-6-((5-((S)-2-(3-cyclopropoxy-4-(difluoromethoxy)phenyl)-2-(6-(2-hydroxypropan-2-yl)pyridin-3-yl)ethyl)pyridin-2-yl)oxy)-4,5-dihydroxy-2-(hydroxymethyl)tetrahydro-2H-pyran-3-yl)oxy)-6-(hydroxymethyl)tetrahydro-2H-pyran-3,4,5-triol] | 0.02 ×10⁻⁶ cm/s | 0.6%

Other lines, results leading:

Papp A→B at 10 µM [1] | Prodrug Remaining @ 24 hr (%) [2] | SMILES
0.1 ×10⁻⁶ cm/s | 0.0% | CC(C)(O)c1ccc([C@@H](Cc2ccc(O[C@@H]3O[C@H](CO)[C@H](O)[C@H](O)[C@H]3O)nc2)c2ccc(OC(F)F)c(OC3CC3)c2)cn1 [Compound 18, (2S,3R,4S,5R,6R)-2-((5-((S)-2-(3-cyclopropoxy-4-(difluoromethoxy)phenyl)-2-(6-(2-hydroxypropan-2-yl)pyridin-3-yl)ethyl)pyridin-2-yl)oxy)-6-(hydroxymethyl)tetrahydro-2H-pyran-3,4,5-triol]
0.2 ×10⁻⁶ cm/s | 0.0% | CC(C)(O)c1ccc([C@@H](Cc2ccc(O[C@H]3O[C@H](CO)[C@@H](O)[C@H](O)[C@@H]3O)nc2)c2ccc(OC(F)F)c(OC3CC3)c2)cn1 [Compound 20, (2R,3S,4S,5S,6R)-2-((5-((S)-2-(3-cyclopropoxy-4-(difluoromethoxy)phenyl)-2-(6-(2-hydroxypropan-2-yl)pyridin-3-yl)ethyl)pyridin-2-yl)oxy)-6-(hydroxymethyl)tetrahydro-2H-pyran-3,4,5-triol]
